# Reference: patent publication US20130045952A1, “ABA Receptor Agonists for Increased Plant Stress Resistance” (Van Andel Research Institute, priority 2011, published 2013)
# Tests used:
# Assay type in all cases: biochemical
# His6-PYL3 / biotin-PP2C = target: T1, His6-PYL3 / biotin-PP2C (Arabidopsis thaliana, UniProt Q9SSM7); test: AlphaScreen luminescence proximity assay, PYL3-PP2C interaction; details: 100 nM His6-PYL3, 100 nM biotin-PP2C, 100 μM agonist; normalized against a pyrabactin control
# T1 construct: made in house; host or cells: not expressly stated for PYL3
# T1 sequence (Q9SSM7 1-209): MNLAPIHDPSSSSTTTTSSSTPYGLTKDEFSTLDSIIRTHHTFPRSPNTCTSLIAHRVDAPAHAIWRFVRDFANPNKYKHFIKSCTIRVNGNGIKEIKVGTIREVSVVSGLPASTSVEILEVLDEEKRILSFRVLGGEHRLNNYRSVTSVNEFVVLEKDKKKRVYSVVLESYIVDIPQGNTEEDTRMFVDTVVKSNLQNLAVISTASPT
# Protocol: (§1) Mutant proteins were expressed as H6GST-fusion proteins and purified by glutathione sepharose chromatography. Protein-protein interactions were determined by luminescence proximity AlphaScreen assay. Biotinylated PP2C proteins for the luminescence proximity assay were generated by in vivo biotinylation of avitag-PP2C fusion proteins. PP2C phosphatase activity was measured by phosphate release from a SnRK2.6 phosphoprotein.
# (§2) Interactions between PYR/PYL and PP2Cs were assessed by luminescence-proximity AlphaScreen technology (Perkin Elmer). Briefly, biotinylated PP2Cs were attached to streptavidin-coated donor beads, and H6-tagged PYR/PYL receptors were attached to nickel-chelated acceptor beads. The donor and acceptor beads were brought into proximity by the interactions between PYR/PYLs and PP2Cs, which were measured with and without ligands. When excited by a laser beam of 680 nm, the donor beam emits singlet oxygen that activates thioxene derivatives in the acceptor beads, which releases photons of 520-620 nm as the binding signal. The experiments were conducted with 100 nM of PP2Cs and PYR/PYL proteins in the presence of 5 ug/ml donor and acceptor beads in a buffer of 50 mM MOPS, pH7.4, 50 mM NaF, […], and 0.1 mg/ml bovine serum albumin. The results were based on an average of three experiments with standard errors typically less than 10% of the measurements.
# (§3) Values were determined in different experiments and normalized against a pyrabactin control. Blank spaces mean no experimental data is available. Key (photon counts (binding signal units) in Alphascreen luminescence proximity assay): “+++ is >75,000; ++ is 25,000−75,000; + is <25,000.
# His6-PYR1 / biotin-PP2C = target: T2, His6-PYR1 / biotin-PP2C (Arabidopsis thaliana, UniProt O49686); test: AlphaScreen luminescence proximity assay, PYR1-PP2C interaction; details: 100 nM His6-PYR1, 100 nM biotin-PP2C, 100 μM agonist; normalized against a pyrabactin control
# T2 construct: made in house; host or cells: E. coli is stated for PYL1, PYL2 and the PP2Cs, not expressly for PYR1
# T2 sequence (O49686 1-191): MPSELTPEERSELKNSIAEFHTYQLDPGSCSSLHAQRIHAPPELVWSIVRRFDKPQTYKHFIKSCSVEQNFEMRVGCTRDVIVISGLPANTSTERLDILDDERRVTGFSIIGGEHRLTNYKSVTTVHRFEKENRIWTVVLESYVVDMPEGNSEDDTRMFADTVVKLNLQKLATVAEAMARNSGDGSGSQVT
# Protocol: as §1, §2, §3
# His6-PYL1 / biotin-PP2C = target: T3, His6-PYL1 / biotin-PP2C (Arabidopsis thaliana, UniProt Q8VZS8); test: AlphaScreen luminescence proximity assay, PYL1-PP2C interaction; details: 100 nM His6-PYL1, 100 nM biotin-PP2C, 100 μM agonist; normalized against a pyrabactin control
# T3 construct: PYL1 (residues 36-211), PYL2 (residues 14-188), and HAB1 (residues 172-511) were prepared as recombinant proteins in E. coli; made in house; host or cells: E. coli
# T3 sequence (Q8VZS8 36-211): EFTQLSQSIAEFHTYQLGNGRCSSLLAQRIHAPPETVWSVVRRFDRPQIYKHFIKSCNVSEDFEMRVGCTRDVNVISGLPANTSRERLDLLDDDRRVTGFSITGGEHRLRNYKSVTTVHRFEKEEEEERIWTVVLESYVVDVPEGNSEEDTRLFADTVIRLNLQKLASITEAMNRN
# Protocol: as §1, §2, §3
# His6-PYL2 / biotin-PP2C = target: T4, His6-PYL2 / biotin-PP2C (Arabidopsis thaliana, UniProt O80992); test: AlphaScreen luminescence proximity assay, PYL2-PP2C interaction; details: 100 nM His6-PYL2, 100 nM biotin-PP2C, 100 μM agonist; normalized against a pyrabactin control
# T4 construct: PYL2 (residues 14-188), and HAB1 (residues 172-511) were prepared as recombinant proteins in E. coli; made in house; host or cells: E. coli
# T4 sequence (O80992 14-188): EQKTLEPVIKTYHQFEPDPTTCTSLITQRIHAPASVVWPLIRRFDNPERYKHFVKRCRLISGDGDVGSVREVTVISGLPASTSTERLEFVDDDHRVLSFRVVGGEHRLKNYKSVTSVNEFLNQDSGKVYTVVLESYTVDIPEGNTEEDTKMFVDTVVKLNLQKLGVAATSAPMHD
# Protocol: as §1, §2, §3
Compound,Stimulation of the interaction between PYL3 and PP2C (binding signal) (His6-PYL3 / biotin-PP2C),Stimulation of the interaction between PYR1 and PP2C (binding signal) (His6-PYR1 / biotin-PP2C),Stimulation of the interaction between PYL1 and PP2C (binding signal) (His6-PYL1 / biotin-PP2C),Stimulation of the interaction between PYL2 and PP2C (binding signal) (His6-PYL2 / biotin-PP2C)
O=S(=O)(NCc1ccccn1)c1ccc2ccccc2c1 [Compound 4],"+ (+ is <25,000)","+++ (+++ is >75,000)",,
CCOC(=O)C1OC(NC(=O)CSc2nnc(-c3ccccc3OCC)o2)C(C#N)C1C (centres unmarked) [Compound 5],"+ (+ is <25,000)","+ (+ is <25,000)","+ (+ is <25,000)","++ (++ is 25,000−75,000)"
O=C(CNS(=O)(=O)c1ccccc1)OCc1ccc(Cl)c(Cl)c1 [Compound 6],"++ (++ is 25,000−75,000)","++ (++ is 25,000−75,000)",,"+ (+ is <25,000)"
CC(C)c1ccccc1OCCNS(=O)(=O)c1ccc2ccccc2c1 [Compound 7],"+ (+ is <25,000)","++ (++ is 25,000−75,000)","++ (++ is 25,000−75,000)","++ (++ is 25,000−75,000)"
O=S(=O)(NCCOc1ccccc1)c1ccc2ccccc2c1 [Compound 8],"++ (++ is 25,000−75,000)","+ (+ is <25,000)",,"+ (+ is <25,000)"
CCCCOc1cccc(C(=O)NC(=S)Nc2ccc(S(N)(=O)=O)cc2)c1 [Compound 9],"+ (+ is <25,000)","+ (+ is <25,000)",,"+ (+ is <25,000)"
CC1(C)CC(=O)C(/C=N/CCc2ccc(S(N)(=O)=O)cc2)=C(O)C1 [Compound 10],"+ (+ is <25,000)","+ (+ is <25,000)",,"+ (+ is <25,000)"
O=S(=O)(NC[C@@H]1CCCO1)c1ccc(Br)c2ccccc12 [Compound 12],"+++ (+++ is >75,000)","+++ (+++ is >75,000)",,
CCCN(CCC)C(=O)[C@@H](CCC(=O)O)NS(=O)(=O)c1ccc(C)cc1 [Compound 13],,"+ (+ is <25,000)",,
Cc1ccc(C(=O)O)cc1NC(=S)NC(=O)c1ccccc1Cl [Compound 14],"+ (+ is <25,000)","+ (+ is <25,000)",,"+ (+ is <25,000)"
CC(=O)c1cccc(N/C=C/C(=O)c2ccc(Cl)c(Cl)c2)c1 [Compound 15],"++ (++ is 25,000−75,000)","+ (+ is <25,000)","+ (+ is <25,000)","++ (++ is 25,000−75,000)"
